This passage reports Activity results from ChEMBL document CHEMBL1157976, “Iridoid constituents of Tarenna attenuata” (J Nat Prod, 2006).

Calls of active or inactive are those of the source. The rule behind the calls is not given here.

Assay [1] deals with PC-12. Put plainly: Antioxidant activity against H2O2-induced impairment of rat PC12 cells apoptosis at 0.4 to 50 uM. It counts as functional, cell-based.
The test system of assay [2] is PC-12. The assay is described as follows: Cytotoxicity against rat PC12 cells at 0.4 to 50 uM. It counts as functional, cell-based.

As to `O=C(/C=C/c1ccccc1)OC[C@H]1O[C@@H](O[C@@H]2OC=C(C(=O)O)[C@H]3CC=C(C(=O)O)[C@@H]23)[C@H](O)[C@@H](O)[C@@H]1O`, the result in the assay on PC-12 [1] and in the assay with PC-12 [2] was inactive.

Consider `O=C(O)C1=CC[C@@H]2C(C(=O)O)=CO[C@@H](O[C@@H]3O[C@H](COC(=O)c4ccccc4)[C@@H](O)[C@H](O)[C@H]3O)[C@H]12`, for which the outcome with PC-12 [1] and in the assay on PC-12 [2] was inactive.

`O=C(O)C1=CC[C@@H]2C(C(=O)O)=CO[C@@H](O[C@@H]3O[C@H](CO)[C@@H](O)[C@H](O)[C@H]3O)[C@H]12`: the result in the assay with PC-12 [1] and in the assay on PC-12 [2] was inactive.

Turning to `COc1cc(C(=O)O[C@@H]2[C@@H](O)[C@H](O[C@@H]3OC=C(C(=O)O)[C@H]4CC=C(C(=O)O)[C@@H]34)O[C@H](CO)[C@H]2O)ccc1O`, the outcome in the assay on PC-12 [1] and in the assay with PC-12 [2] was inactive.

On to `COC(=O)C1=CC[C@@H]2C(C(=O)O)=CO[C@@H](O[C@@H]3O[C@H](CO)[C@@H](O)[C@H](O)[C@H]3O)[C@H]12`, for which the outcome in the assay with PC-12 [1] and with PC-12 [2] was inactive.

`COc1cc(/C=C/C(=O)OC[C@H]2O[C@@H](O[C@@H]3OC=C(C(=O)O)[C@H]4CC=C(C(=O)O)[C@@H]34)[C@H](O)[C@@H](O)[C@@H]2O)ccc1O`: the result in the assay on PC-12 [1] and in the assay with PC-12 [2] was inactive.

Consider `COc1cc(C(=O)OC[C@H]2O[C@@H](O[C@@H]3OC=C(C(=O)O)[C@H]4CC=C(C(=O)O)[C@@H]34)[C@H](O)[C@@H](O)[C@@H]2O)ccc1O`, for which the result in the assay with PC-12 [1] and in the assay with PC-12 [2] was inactive.

Turning to `COc1cc(/C=C/C(=O)O[C@H]2[C@H](O)[C@@H](O)[C@H](O[C@@H]3OC=C(C(=O)O)[C@H]4CC=C(C(=O)O)[C@@H]34)O[C@@H]2CO)ccc1O`, the outcome in the assay on PC-12 [1] and with PC-12 [2] was inactive.

For `COc1cc(C(=O)OC[C@H]2O[C@@H](O[C@@H]3OC=C(C(=O)O)[C@H]4CC=C(C(=O)O)[C@@H]34)[C@H](O)[C@@H](O)[C@@H]2O)cc(OC)c1O`, the outcome in the assay with PC-12 [1] and in the assay with PC-12 [2] was inactive.
